Measurements published in US11279744B2, “Neuropeptide Y fragment capable of releasing hematopoietic stem cells into blood and treating osteoporosis” (Kyungpook National University Industry-Academic Cooperation …, priority 2017, dated 2022).
“Also recorded” adds a separate entry of the source. Non-standard residues stand in square brackets, D forms with d. No end group written: not given here.

Key:
Type in all cases: in vivo, mouse
[1] = weight change in animal models of osteoporosis (OVX); details: OVX mice, 50 μg/kg intraperitoneally twice a day for 4 weeks; weighed weekly; vs PBS group that gained weight
Procedure: (§1) To make an osteoporosis model, 10-18 12 weeks old female mice per group underwent ovarian ablation. A week later, 50 μg/kg of NPY(21-28), NPY D^25(21-28), NPY D^26(21-28), NPY D^25,26(21-28), Osteopep2, NPY and 100 μl of PBS(Gibco) were intraperitoneally administered twice a day for 4 weeks at 12 hour intervals. Alendronate (Sigma), used as a competitive drug, was intraperitoneally administered once a week for 4 weeks at a dose of 50 μg/kg. As a control group, only Sham model of osteoporosis was performed by subcutaneous dissection of female mouse. Mice were placed in experimental groups using the Block randomization method, and all mouse experiments were approved through the Kyungpook National University Institutional Animal Care and Use Committee.
In order to investigate whether the NPY (21-28) of the present invention affects the blood release of myelopoiesis stem cells in the animal models of osteoporosis, the following experiments were carried out according to the methods of Examples 1-1, 1-3, 1-4, and 1-5. In order to make animal models of osteoporosis, 12 weeks old C57BL/6 female mice were subjected to ovarian ablation for 10 to 18 animals in each group. One week later, 50 μg/kg of NPY (21-28) and 100 μl of PBS (Gibco) were intraperitoneally administered twice a day for 4 weeks at 12 hour intervals. As a control group, mice that underwent only subcutaneous incisions in normal mice were used. Weight change was measured weekly, and bone marrow and blood were collected one hour after the last dose at 4 weeks, and the release of myelopoiesis progenitor and stem cells into blood was analyzed. […]
In order to investigate the effect of NPY (21-28) of the present invention on weight gain induced by osteoporosis, body weight was measured once a week for a total of 4 weeks of NPY (21-28) injection. […]
In order to investigate the effects of NPY D^25(21-28), NPY D^26(21-28), and NPY D^25,26(21-28) of the present invention on weight gain induced by osteoporosis, body weight was measured once a week for a total of 4 weeks in which each peptide was injected.

[2] = tested on: myelopoiesis progenitor cells in the blood; assay: Colony-forming unit (CFU) assay, progenitor cells in blood of osteoporosis animal models; details: OVX mice, 50 μg/kg i.p. twice a day for 4 weeks, blood 1 hour after last dose
Procedure: To make an osteoporosis model, 10-18 12 weeks old female mice per group underwent ovarian ablation. A week later, 50 μg/kg of NPY(21-28), NPY D^25(21-28), NPY D^26(21-28), NPY D^25,26(21-28), Osteopep2, NPY and 100 μl of PBS(Gibco) were intraperitoneally administered twice a day for 4 weeks at 12 hour intervals. Alendronate (Sigma), used as a competitive drug, was intraperitoneally administered once a week for 4 weeks at a dose of 50 μg/kg. As a control group, only Sham model of osteoporosis was performed by subcutaneous dissection of female mouse. Mice were placed in experimental groups using the Block randomization method, and all mouse experiments were approved through the Kyungpook National University Institutional Animal Care and Use Committee. CFU analysis was performed to determine the number of bone marrow hematopoietic progenitor cells in the blood of mice. After anesthetizing the mouse first, 500 μl to 700 μl of blood were collected in a heparin tube by cardiac drawing, and then placed in ammonium chloride solution (Stem Cell Technologies, Inc. 1:10) and placed on ice for 15 minutes to remove red blood cells. The red blood cells were well shaken at intervals of 2 to 3 minutes and centrifuged at 1000 rpm for 7 minutes. The supernatant was removed and washed with IMDM (Gibco) supplied with 2% fetal bovine serum (FBS, Gibco). The washed cells (3×10^5 per mouse) were divided into three 35 mm dishes containing methylcellulose-based media (Methocult, Stem cell), and after the cells were incubated for two weeks, the number of colonies formed in the flask was counted. In order to investigate whether the NPY (21-28) of the present invention affects the blood release of myelopoiesis stem cells in the animal models of osteoporosis, the following experiments were carried out according to the methods of Examples 1-1, 1-3, 1-4, and 1-5. In order to make animal models of osteoporosis, 12 weeks old C57BL/6 female mice were subjected to ovarian ablation for 10 to 18 animals in each group. One week later, 50 μg/kg of NPY (21-28) and 100 μl of PBS (Gibco) were intraperitoneally administered twice a day for 4 weeks at 12 hour intervals. As a control group, mice that underwent only subcutaneous incisions in normal mice were used. Weight change was measured weekly, and bone marrow and blood were collected one hour after the last dose at 4 weeks, and the release of myelopoiesis progenitor and stem cells into blood was analyzed. The positive control group, NPY (21-36), Osteopep2 and full length NPY (50 μg/kg, intraperitoneally administered twice a day for 4 weeks) were used. Alendronate used as a competitive drug for osteoporosis treatment was intraperitoneally administered at a dose of 50 μg/kg for 4 weeks once a week. […]

[3] = tested on: osteoclasts in bone marrow; assay: TRAP staining of osteoclasts in bone marrow of osteoporosis animal models; details: OVX mice, 50 μg/kg i.p. twice a day for 4 weeks; compared to PBS
Procedure: as §1
The femurs were separated from the mice and fixed in 4% paraformaldehyde for 24 hours, and tissue was decalcified in 10% EDTA for 5 weeks. It was then dehydrated with a series of diluted alcohols, paraffinized, and prepared into […] paraffin sections.
For TRAP staining, sections were deparaffinized, stained with 1.33 mM Fast Red Violet LB Salt (Sigma-Aldrich) in 50 mM sodium acetate (pH 5.0) containing 225 μM Naphthol AS-MX phosphate (Sigma-Aldrich, St Louis, Mo., USA), 0.84% N, N-dimethylformamide (Sigma-Aldrich) and 50 mM sodium tartrate, and incubated for 30 minutes. After incubation, the sections were washed with distilled water and counterstained with 1% methyl green.
Histomorphometric analysis was performed using the OsteoMeasure program (Extensive interactive Bone Histomorphometry Analysis System).
After the last administration at 4 weeks of NPY (21-28), the femurs were separated from the mice and the number of osteoclasts in the bone marrow was measured by TRAP staining.
After the last administration at 4 weeks of NPY D^25(21-28), NPY D^26(21-28), and NPY D^25,26(21-28), the femurs were separated from the mice and the number of osteoclasts in the bone marrow was measured by TRAP staining.

Substance	weight change [1]	releasing myelopoiesis progenitor cells into blood (CFU assay) [2]	releasing myelopoiesis progenitor cells into blood (CFU assay) ([2]; listed as NPY D^25,26 (21-28))	number of TRAP positive osteoclasts in bone marrow (Number of osteoclast/Bone surface) [3]	osteoclast surface (Osteoclast surface/Bone surface) [3]
NPY D^25,26(21-28): peptide in which both the fifth and sixth amino acids of NPY (21-28) are modified to D-form (YSAL[dR][dH]YI)	did not change in weight	increases	highest efficiency; also recorded: even better than that of NPY (21-28)	reduced; also recorded: highest efficiency	reduced
YSALRHYI [NPY (21-28)]	did not change in weight	increases; also recorded: superior to Osteopep2 and NPY		superior to Osteopep2 and NPY; also recorded: superior to the competitive drug Alendronate	superior to Osteopep2 and NPY; also recorded: superior to the competitive drug Alendronate
NPY D^25(21-28): peptide in which arginine, the fifth amino acid of the amino acid sequence of NPY (21-28), is modified to D-type (YSAL[dR]HYI)	did not change in weight	increases		reduced	reduced
